One assay has as its target Tubulin (Homo sapiens) (UniProt P68371+Q9H4B7+P0DPH7+P68366+Q13509+Q71U36+P04350+Q3ZCM7+P07437+P68363+Q9BQE3+Q6PEY2+Q13885+Q9BVA1+Q9BUF5). In words: Induction of tubulin (unknown origin) polymerization. Format: protein-complex assay.
The subject of another assay is A2780. In words: Inhibition of human A2780 cell proliferation. Format: functional, cell-based.
For another assay, the system named is HCT-116. Kind of assay: Inhibition of human HCT116 cell proliferation. The class given is functional, cell-based.
A further assay relates to K562. Kind of assay: Inhibition of human K562 cell proliferation. The class given is functional, cell-based.
Another assay deals with LNCaP. Kind of assay: Antiproliferative activity against human LNCAP cells assessed as inhibition of cell proliferation after 3 days by MTS assay. The class given is functional, cell-based. The settings on record: 72 h. In general terms: Tetrazolium assays rely on reduction of a dye to a coloured formazan, in cell work by metabolically active cells.
For assay [1], the system named is HT-29. Kind of assay: Antiproliferative activity against human HT-29 cells assessed as inhibition of cell proliferation after 3 days by MTS assay. The class given is functional, cell-based. The settings on record: HT-29, 72 h.
A further assay concerns MDA-MB-231. In words: Antiproliferative activity against human MDA-MB-231 cells assessed as inhibition of cell proliferation after 3 days by MTS assay. The class given is functional, cell-based. The settings on record: MDA-MB-231, 72 h.
Assay [2] can be described thus: Antiproliferative activity against human FEK4 cells assessed as inhibition of cell proliferation after 3 days by MTS assay. As to conditions: FEK4, 72 h. The class given is cell-based.
The test system of assay [3] is HT-29. In words: Inhibition of human HT-29 cell proliferation. Format: functional, cell-based.

Each structure is given as a SMILES string.

Broadly, the IC50 is the concentration at which inhibition is half-maximal. Take `COc1ccc(O[C@@H]2/C=C\CC(O)C[C@@H]3[C@@H](C(C)C)CC=C(C)[C@@H]3C[C@@H]2OC(=O)/C=C/c2cn(C)cn2)cc1` (single isomer, unassigned): the ED90 on Tubulin (Homo sapiens) was found to be 0.5 µM. For the same molecule, the figures for the IC50 with A2780, in the assay with HCT-116 and in the assay on K562 were 1900 nM, 900 nM and 2300 nM, respectively.
As to `COc1cc(C(=O)/C=C/c2cccn2C)cc(OC)c1OC`, the half-inhibitory concentration (IC50) was determined as 69.5 µM in the assay with LNCaP, 12.5 µM in the assay with HT-29 [1], 18 µM in the assay with MDA-MB-231 and 118 µM in assay [2].
At Tubulin (Homo sapiens), `O[C@H]1C/C=C\CC[C@@H]2C=C[C@H]1O2` displayed an ED90 of 3 µM.
In the case of `COc1ccc(C(=O)/C=C/c2ccc[nH]2)cc1OC`, the IC50 in the assay with LNCaP stood at 105 µM; in the assay with HT-29 [1], 86 µM; in the assay on MDA-MB-231, 102 µM; in assay [2], 135 µM.
In the case of `COc1cc(C(=O)CCc2cnc[nH]2)cc(OC)c1OC`, the IC50 with LNCaP was 368 µM; in the assay on HT-29 [1] it was greater than 500 µM; with MDA-MB-231, 223 µM; in assay [2], greater than 500 µM.
With `COc1cc(C(=O)/C=C/c2cn(C)cn2)cc(OC)c1OC`, the IC50 in the assay with LNCaP is 48.4 µM; in the assay on HT-29 [1], 2.9 µM; with MDA-MB-231 it was 4.8 µM; in assay [2] it was 85 µM.
On the same counts, the results for `COc1ccc(C(=O)/C=C/c2cnc[nH]2)cc1OC` are 46.2 µM, 37.9 µM, 18.2 µM and 84.2 µM.
On the same counts, the results for `COc1ccc(C(=O)/C=C/c2cccn2C)cc1OC` are 56.3 µM, 60.4 µM, 42.8 µM and 162 µM.
The matching figures for `COc1ccc(C(=O)/C=C/c2cccn2C)cc1`: 75.5 µM, 61.8 µM, 53.5 µM and 188 µM.
As for `COc1cc(C(=O)/C=C/c2nccn2C)cc(OC)c1OC`, the IC50 in the assay on LNCaP was determined as 11 µM; in the assay on HT-29 [1], 4.2 µM; in the assay with MDA-MB-231 it was 4.9 µM; in assay [2], 17.5 µM.
At Tubulin (Homo sapiens), `CC1=CC[C@H](C(C)C)[C@H]2C[C@H](OC(=O)C(C)(C)C)[C@@H](O)/C=C\C[C@@H](OC(=O)/C=C/c3cn(C)cn3)C[C@@H]12` had an ED90 of 1.8 µM. The IC50 in the assay on HT-29 [1] came to 5 µM; with A2780 it was 4000 nM; with HT-29 [3], 5 µM; in the assay with HCT-116, 4000 nM.
For `Cn1cnc(/C=C/C(=O)O[C@H]2C/C=C\CC[C@@H]3C=C[C@H]2O3)c1`, the ED90 at Tubulin (Homo sapiens) was determined as 6 µM.
`CC(=O)O[C@H]1C(=O)[C@@]2(C)[C@H]([C@H](OC(=O)c3ccccc3)[C@]3(O)C[C@H](OC(=O)[C@H](O)[C@@H](NC(=O)c4ccccc4)c4ccccc4)C(C)=C1C3(C)C)[C@]1(OC(C)=O)CO[C@@H]1C[C@@H]2O` [PACLITAXEL]: the ED90 at Tubulin (Homo sapiens) came out at 0.5 µM. The IC50 in the assay on HT-29 [1] was less than 0.005 µM.
With `COc1cc(C(=O)/C=C/c2ncc[nH]2)cc(OC)c1OC`, the IC50 in the assay on LNCaP came to 17.1 µM; in the assay with HT-29 [1], 5 µM; with MDA-MB-231 it was 4.9 µM; in assay [2] it was 28.6 µM.
As for `COc1cc(C(=O)/C=C/c2ccc[nH]2)cc(OC)c1OC`, the IC50 was 59.9 µM with LNCaP, 43 µM in the assay with HT-29 [1], 49.9 µM in the assay with MDA-MB-231 and 156 µM in assay [2].
For `COc1cccc2c1C(=O)c1c(O)c3c(c(O)c1C2=O)C[C@@](O)(C(=O)CO)C[C@@H]3O[C@H]1C[C@H](N)[C@H](O)[C@H](C)O1` [DOXORUBICIN], the half-inhibitory concentration (IC50) in the assay on LNCaP worked out at 0.154 µM; with HT-29 [1], 0.164 µM; in the assay with MDA-MB-231 it was 0.12 µM.
With `COc1cc(C(=O)/C=C/c2cncn2C)cc(OC)c1OC`, the IC50 amounted to 30.6 µM with LNCaP, 15.9 µM in the assay on HT-29 [1], 16.9 µM in the assay on MDA-MB-231 and 49.9 µM in assay [2].
On the same counts, the results for `COc1cc(C(=O)/C=C/c2cnc[nH]2)cc(OC)c1OC` are 48.1 µM, 19.5 µM, 22.9 µM and 53.2 µM.
The matching figures for `COc1ccc(C(=O)/C=C/c2ccc[nH]2)cc1`: greater than 500 µM, greater than 500 µM, greater than 500 µM and greater than 500 µM.

The values are drawn from ChEMBL document CHEMBL3217660, “Design, synthesis and antiproliferative activity of urocanic-chalcone hybrid derivatives” (Medchemcomm, 2011).
